How the values were obtained:
[1] = system: mRNA expressed from the genes (A) to (D) in rat liver; assay: Behavior of genes (mRNA expression level, oligo-DNA microarray) in rat liver after 28-day oral administration; assay type: in vivo; conditions: mRNA vs vehicle control group
Procedure, shortened: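 Male F344 SPF rats, 5 weeks old, four per group, dosed by oral gavage once daily for 28 days with test chemical or matched-volume solvent. Liver total RNA profiled on oligo-DNA microarray. Change ≥1.5-fold or ≤1/1.5 versus vehicle counted as significant if its direction matched that seen with other carcinogens.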

[2] = system: liver; conditions: classification of the substance (Cr+/Cr−); cited from earlier work
[3] = system: rodent; conditions: classification of the substance (C+/C−); cited from earlier work
[4] = gene group (A), Unigene No. Rn.167075
[5] = gene group (C), Unigene No. Rn.120914

## CCCCC(CC)COC(=O)CCCCC(=O)OCC(CC)CCCC (centres unmarked) [TS018, Di(2-ethylhexyl)adipate]
[1]; gene group (A), Unigene No. Rn.144554
  Behavior of gene caused by administration of chemical substance, Gene No. 4846: −
[1]; [4]
  Behavior of gene caused by administration of chemical substance, Gene No. 2026: −
  Behavior of gene caused by administration of chemical substance, Gene No. 4218: −
[1]; gene group (A), Unigene No. Rn.5834
  Behavior of gene caused by administration of chemical substance, Gene No. 6182: +
[1]; gene group (A), Unigene No. Rn.9836
  Behavior of gene caused by administration of chemical substance, Gene No. 5600: −
[1]; gene group (B), Unigene No. Rn.1430
  Behavior of gene caused by administration of chemical substance, Gene No. 1494: +
[1]; gene group (B), Unigene No. Rn.19329
  Behavior of gene caused by administration of chemical substance, Gene No. 2045: +
[1]; gene group (B), Unigene No. Rn.21240
  Behavior of gene caused by administration of chemical substance, Gene No. 2203: +
[1]; gene group (C), Unigene No. Rn.106184
  Behavior of gene caused by administration of chemical substance, Gene No. 533: +
[1]; gene group (C), Unigene No. Rn.108075
  Behavior of gene caused by administration of chemical substance, Gene No. 725: −
[1]; gene group (C), Unigene No. Rn.11766
  Behavior of gene caused by administration of chemical substance, Gene No. 1163: −
[1]; gene group (C), Unigene No. Rn.118529
  Behavior of gene caused by administration of chemical substance, Gene No. 4973: +
[1]; gene group (C), Unigene No. Rn.119024
  Behavior of gene caused by administration of chemical substance, Gene No. 4095: +
[1]; [5]
  Behavior of gene caused by administration of chemical substance, Gene No. 1334: −
  Behavior of gene caused by administration of chemical substance, Gene No. 6620: −
[1]; gene group (C), Unigene No. Rn.123063
  Behavior of gene caused by administration of chemical substance, Gene No. 6303: −
[1]; gene group (C), Unigene No. Rn.143213
  Behavior of gene caused by administration of chemical substance, Gene No. 5878: −
[1]; gene group (C), Unigene No. Rn.144946
  Behavior of gene caused by administration of chemical substance, Gene No. 1131: −
[1]; gene group (C), Unigene No. Rn.14744
  Behavior of gene caused by administration of chemical substance, Gene No. 1562: −
[1]; gene group (C), Unigene No. Rn.1647
  Behavior of gene caused by administration of chemical substance, Gene No. 1741: −
[1]; gene group (C), Unigene No. Rn.164817
  Behavior of gene caused by administration of chemical substance, Gene No. 893: −
[1]; gene group (C), Unigene No. Rn.167685
  Behavior of gene caused by administration of chemical substance, Gene No. 6026: −
[1]; gene group (C), Unigene No. Rn.185941
  Behavior of gene caused by administration of chemical substance, Gene No. 154: −
[1]; gene group (C), Unigene No. Rn.18728
  Behavior of gene caused by administration of chemical substance, Gene No. 1993: −
[1]; gene group (C), Unigene No. Rn.201760
  Behavior of gene caused by administration of chemical substance, Gene No. 813: −
[1]; gene group (C), Unigene No. Rn.23969
  Behavior of gene caused by administration of chemical substance, Gene No. 2494: −
[1]; gene group (C), Unigene No. Rn.24561
  Behavior of gene caused by administration of chemical substance, Gene No. 2546: −
[1]; gene group (C), Unigene No. Rn.43232
  Behavior of gene caused by administration of chemical substance, Gene No. 3776: −
[1]; gene group (C), Unigene No. Rn.4620
  Behavior of gene caused by administration of chemical substance, Gene No. 3929: −
[1]; gene group (C), Unigene No. Rn.9757
  Behavior of gene caused by administration of chemical substance, Gene No. 1119: −
[1]; gene group (C), Unigene No. Rn.9779
  Behavior of gene caused by administration of chemical substance, Gene No. 6742: −
[1]; gene group (C), Unigene No. Rn.9862
  Behavior of gene caused by administration of chemical substance, Gene No. 5634: −
[1]; gene group (D), Unigene No. Rn.9939
  Behavior of gene caused by administration of chemical substance, Gene No. 5726: −
[2]
  Liver carcinogenicity: Cr−
[3]
  Carcinogenicity: C+
